Earlier results as cited in patent US20020064834A1, “Microbiological production method for alpha-L-aspartyl-L-phenylalanine” (priority 1999, published 2002).
Residues, ends and D or L forms follow the SMILES beside them.

Conditions: relative to sucrose

## COC(=O)[C@H](Cc1ccccc1)NC(=O)[C@@H](N)CC(=O)O [APM, α-L-aspartyl-L-phenylalanine methyl ester] (H-Asp-Phe-OMe)
  sweetness as potent as the sweetness of sucrose: about 200 ×
